Molecular target: Human immunodeficiency virus type 1 protease (Human immunodeficiency virus 1, UniProt Q72874)
Assay: Inhibitory activity was determined against HIV type 1 protease

Structure (SMILES)	Ki
CC(C)[C@H](NC(=O)OCc1ccccc1)C(=O)N[C@@H](Cc1ccccc1)[C@@H](O)[C@@H](NCc1ccccc1)C(=O)N[C@H](C(=O)NCc1ccncc1)C(C)C	11 nM
CC(C)(C)[C@H](NC(=O)OCc1ccccc1)C(=O)N[C@@H](Cc1ccccc1)[C@@H](O)[C@@H](NCc1ccccc1)C(=O)N[C@H]1c2ccccc2CC1O (stereo partly specified)	14.5 nM
COc1ccc(CN[C@@H](C(=O)N[C@H](C(=O)NCc2nc3ccccc3[nH]2)C(C)C)[C@H](O)[C@H](Cc2ccccc2)NC(=O)[C@@H](NC(=O)CCc2ccc(P(=O)(O)O)cc2)C(C)(C)C)cc1	7.76 nM
CC(C)[C@H](NC(=O)[C@H](NCc1ccccc1)[C@H](O)[C@H](Cc1ccccc1)NC(=O)[C@H](CC(N)=O)NC(=O)c1ccc2ccccc2n1)C(=O)NCc1ccccc1	24 nM
COC(=O)CC[C@H](NC(=O)[C@H](NCc1ccc(OC)cc1)[C@H](O)[C@H](Cc1ccccc1)NC(=O)[C@@H](NC(=O)OCc1ccccc1)C(C)C)C(=O)NCc1nc2ccccc2[nH]1	11 nM
CC(C)[C@H](NC(=O)OCc1ccccc1)C(=O)N[C@@H](Cc1ccccc1)[C@@H](O)[C@@H](NCc1ccccc1)C(=O)N[C@H](C(=O)OCc1nc2cc(Cl)c(Cl)cc2[nH]1)C(C)C	22.9 nM
CC(C)[C@H](NC(=O)[C@H](NCc1ccccc1)[C@H](O)[C@H](Cc1ccccc1)NC(=O)[C@@H](N)C(C)(C)C)C(=O)NCc1ccccc1	91.2 nM
CC(C)[C@H](NC(=O)OCc1ccccc1)C(=O)N[C@@H](CCc1ccccc1)[C@@H](O)[C@@H](NCc1ccc(Cl)cc1)C(=O)N[C@H](C(=O)NCc1nc2ccccc2[nH]1)C(C)C	17 nM
CC(C)[C@H](NC(=O)OCc1ccccc1)C(=O)N[C@@H](Cc1ccccc1)[C@@H](O)[C@@H](NCc1ccccc1)C(=O)N[C@H](C(=O)NCc1cccnc1)C(C)C	13.5 nM
COc1ccc(CN[C@@H](C(=O)N[C@H](C(=O)Nc2nc3ccccc3[nH]2)C(C)C)[C@H](O)[C@H](Cc2ccccc2)NC(=O)[C@@H](NC(=O)OCc2ccccc2)C(C)C)cc1	10 nM
CC(C)[C@H](NC(=O)[C@H](NCc1ccc(Cl)cc1)[C@H](O)[C@H](Cc1ccccc1)NC(=O)OC(C)(C)C)C(=O)NCc1nc2ccccc2[nH]1	11 nM
CC(C)[C@H](N)C(=O)C[C@@H](Cc1ccccc1)[C@@H](O)[C@H]1CCc2ccc(cc2)OCCOCCOCCCOCCNC(=O)[C@H](C(C)C)CC1=O	7.59 nM
CC(=O)NCc1ccc(CN[C@@H](C(=O)N[C@H]2c3ccccc3CC2O)[C@H](O)[C@H](Cc2ccccc2)NC(=O)[C@@H](NC(=O)OCc2ccccc2)C(C)(C)C)cc1 (stereo partly specified)	5.75 nM
CC(C)[C@H](NC(=O)[C@H](NCc1ccccc1)[C@H](O)[C@H](Cc1ccccc1)NC(=O)[C@@H](NC(=O)COc1ccccc1)C(C)(C)C)C(=O)NCc1ccccc1	15.8 nM
COc1ccc(CN[C@@H](C(=O)NCc2nc3ccccc3[nH]2)[C@H](O)[C@H](Cc2ccccc2)NC(=O)OC(C)(C)C)cc1	2290 nM
CC[C@H](C)[C@H](NC(=O)[C@H](NCc1ccccc1)[C@H](O)[C@H](Cc1ccccc1)NC(=O)[C@@H](NC(=O)OCc1ccccc1)C(C)C)C(=O)NCc1ccccc1	43.7 nM
COc1ccc(CN[C@@H](C(=O)N[C@H](C(=O)NCc2ccc(OC)cc2OC)C(C)C)[C@H](O)[C@H](Cc2ccccc2)NC(=O)[C@@H](NC(=O)OCc2ccccc2)C(C)C)cc1	4.17 nM
COc1ccc(CN[C@@H](C(=O)N[C@H](C(=O)NCc2nc3ccccc3[nH]2)C(C)C)[C@H](O)[C@H](Cc2ccccc2)NC(=O)[C@@H](NC(=O)CCc2ccc(C(P(=O)(O)OCc3ccccc3)P(=O)(O)OCc3ccccc3)cc2)C(C)(C)C)cc1 (stereo partly specified)	5.25 nM
COc1ccc(CN[C@@H](C(=O)N[C@H]2c3ccccc3CC2O)[C@H](O)[C@H](Cc2ccccc2)NC(=O)OC(C)(C)C)cc1 (stereo partly specified)	148 nM
COc1ccc(CN[C@@H](C(=O)N[C@H](C(=O)NCCc2nc3ccccc3[nH]2)C(C)C)[C@H](O)[C@H](Cc2ccccc2)NC(=O)[C@@H](NC(=O)OCc2ccccc2)C(C)C)cc1	8.91 nM
COc1ccc(CN[C@@H](C(=O)N[C@H](C(=O)NCc2nc3ccccc3[nH]2)c2ccccc2)[C@H](O)[C@@H](N)Cc2ccccc2)cc1	89.1 nM

Structure (SMILES)	Ki
CC(C)[C@H](NC(=O)[C@H](NCc1ccccc1)[C@H](O)[C@H](Cc1ccccc1)NC(=O)[C@@H](NC(=O)c1nc2c(F)cccc2[nH]1)C(C)(C)C)C(=O)NCc1ccccc1	26.9 nM
COc1ccc(CN[C@@H](C(=O)NCCC(=O)NCc2nc3ccccc3[nH]2)[C@H](O)[C@H](Cc2ccccc2)NC(=O)[C@@H](NC(=O)OCc2ccccc2)C(C)C)cc1	46.8 nM
COc1cccc(CN[C@@H](C(=O)N[C@H](C(=O)NCc2ccccc2)C(C)C)[C@H](O)[C@H](Cc2ccccc2)NC(=O)[C@@H](NC(=O)OCc2ccccc2)C(C)C)c1	9.55 nM
CC(C)[C@H](NC(=O)[C@H](NCc1ccccc1)[C@H](O)[C@H](Cc1ccccc1)NC(=O)OC(C)(C)C)C(=O)NCc1ccccc1	158 nM
COc1ccc(CN[C@@H](C(=O)N[C@H](C(=O)NCCNc2ccc([N+](=O)[O-])cn2)C(C)C)[C@H](O)[C@H](Cc2ccccc2)NC(=O)[C@@H](NC(=O)OCc2ccccc2)C(C)C)cc1	9.55 nM
CCOC(=O)[C@H](NCc1ccc(CN)cc1)[C@H](O)[C@H](Cc1ccccc1)NC(=O)[C@@H](NC(=O)OCc1ccccc1)C(C)C	2690 nM
CC(C)(C)OC(=O)N[C@@H](Cc1ccccc1)[C@@H](O)[C@@H](NCc1ccc(CNC(=O)Nc2ccccc2)cc1)C(=O)N[C@H]1c2ccccc2CC1O (stereo partly specified)	33.1 nM
COc1ccc(CN[C@@H](C(=O)N[C@H](C(=O)NCc2nc3ccccc3[nH]2)C(C)C)[C@H](O)[C@H](Cc2ccccc2)NC(=O)[C@@H](NC(=O)CCc2ccc(O)c(I)c2)C(C)(C)C)cc1	4.27 nM
COc1ccc(CN[C@@H](C(=O)N[C@H](C(=O)Nc2ccc3ncsc3c2)C(C)C)[C@H](O)[C@H](Cc2ccccc2)NC(=O)[C@@H](NC(=O)OCc2ccccc2)C(C)C)cc1	15.8 nM
COc1ccc(CN[C@@H](C(=O)N[C@H]2c3ccccc3CC2O)[C@H](O)[C@H](Cc2ccccc2)NC(=O)[C@@H](NC(=O)c2cn3cccnc3n2)C(C)(C)C)cc1 (stereo partly specified)	22.9 nM
CC(C)[C@H](N)C(=O)C[C@@H](Cc1ccccc1)[C@@H](O)[C@H]1CCc2ccc(cc2)OCCOCCCOCCNC(=O)[C@H](C(C)C)CC1=O	6.92 nM
CC(C)[C@H](NC(=O)OCc1ccccc1)C(=O)N[C@@H](Cc1ccccc1)[C@@H](O)[C@H](NCc1ccccc1)C(=O)N[C@H](C(=O)NCc1cccnc1)C(C)C	141 nM
CCOc1ccc(CN[C@@H](C(=O)N[C@H]2c3ccccc3CC2O)[C@H](O)[C@H](Cc2ccccc2)NC(=O)OC(C)(C)C)cc1 (stereo partly specified)	91.2 nM
COc1ccc(CN[C@@H](C(=O)N[C@H](C(=O)NCCc2ccc(S(N)(=O)=O)cc2)C(C)C)[C@H](O)[C@H](Cc2ccccc2)NC(=O)[C@@H](NC(=O)OCc2ccccc2)C(C)C)cc1	14.1 nM
COc1ccc(CN[C@@H](C(=O)N[C@H](C(=O)Nc2nc3ccccc3s2)C(C)C)[C@H](O)[C@H](Cc2ccccc2)NC(=O)[C@@H](NC(=O)OCc2ccccc2)C(C)C)cc1	10.5 nM
CC(C)(C)OC(=O)N[C@@H](Cc1ccccc1)[C@@H](O)[C@@H](NCc1ccc(CNC(=O)CCc2nc3ccccc3[nH]2)cc1)C(=O)NCc1ccccc1	676 nM
CC(C)[C@H](NC(=O)OCc1ccccc1)C(=O)N[C@@H](Cc1ccccc1)[C@@H](O)[C@@H](NC1CCC(O)CC1)C(=O)N[C@H](C(=O)NCc1ccccc1)C(C)C (stereo in doubt; 282808)	1700 nM
CC(C)(C)[C@H](NC(=O)OCc1ccccc1)C(=O)N[C@@H](Cc1ccccc1)[C@@H](O)[C@@H](NCc1ccc(OCCN2CCOCC2)cc1)C(=O)N[C@H](CO)c1ccccc1 (stereo in doubt; 283267)	129 nM
CC(C)(C)[C@H](NC(=O)OCc1ccccc1)C(=O)N[C@@H](Cc1ccccc1)[C@@H](O)[C@@H](NCc1ccc(OCCN2CCOCC2)cc1)C(=O)N[C@H](CO)c1ccccc1 (stereo in doubt; 283268)	100 nM
CC(C)[C@H](NC(=O)OCc1ccccc1)C(=O)N[C@@H](Cc1ccccc1)[C@@H](O)[C@@H](NC1CCC(O)CC1)C(=O)N[C@H](C(=O)NCc1ccccc1)C(C)C (stereo in doubt; c)	1410 nM

Reference: ChEMBL document CHEMBL1128211, “3D-quantitative structure-activity relationships of human immunodeficiency virus type-1 proteinase inhibitors: comparative molecular field analysis of 2-heterosubstituted statine derivatives-implications for the design of novel inhibitors” (J Med Chem, 1995)
